ChEMBL document CHEMBL4610081, “Anti-inflammatory Metabolites from Chaetomium nigricolor” (J Nat Prod, 2020)
Active and inactive are the calls of the source. The calls are words filed in the database; no cut-off is given here.

Tested on: RAW264.7
Assay: Antiinflammatory activity against mouse RAW264.7 cells assessed as inhibition of LPS-induced NO production preincubated for 3 hrs followed by LPS-stimulation and measured after 24 hrs by Griess reagent based assay
Type: functional, cell-based

CC(=O)OCc1ccc(C(=O)O)o1
Activity: inactive

COC(=O)/C=C/C(=O)O
Activity: inactive

COC(=O)CCC(=O)OCc1ccc(C(=O)O)o1
Activity: inactive

COc1cc(C)c2c(OC)cc(=O)oc2c1-c1c(OC)cc(C)c2c(OC)cc(=O)oc12
Activity: inactive

COc1cc(OC)c2c(c1)cc(O)c1c(=O)cc(C)oc12
Activity: inactive
